{
  "source": "paper PMC7180948",
  "about": "“New Insights into 4-Anilinoquinazolines as Inhibitors of Cardiac Troponin I–Interacting Kinase (TNNi3K)” (Molecules, 2020)",
  "assay_in_all_cases": "biochemical",
  "design_in_all_cases": "KINOMEscan competition binding panel (Eurofins DiscoverX), single concentration, % inhibition",
  "conditions_in_all_cases": "read-out: 7 at 1 µM % inhibition",
  "key": {"PRKCE": {"target": "PRKCE (Homo sapiens, UniProt Q02156)", "in_short": "(§1)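 Compounds were submitted at 1 µM to a KINOMEscan assay covering more than 400 human kinases. The screen served to define the selectivity profile.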"}, "ERK8": {"target": "T1, ERK8 (Homo sapiens, UniProt Q8TD08)", "T1 construct": "gene MAPK15", "in_short": "as §1"}, "PLK3": {"target": "PLK3 (Homo sapiens, UniProt Q9H4B4)", "in_short": "as §1"}, "BMPR1A": {"target": "BMPR1A (Homo sapiens, UniProt P36894)", "sequence (P36894 whole entry)": "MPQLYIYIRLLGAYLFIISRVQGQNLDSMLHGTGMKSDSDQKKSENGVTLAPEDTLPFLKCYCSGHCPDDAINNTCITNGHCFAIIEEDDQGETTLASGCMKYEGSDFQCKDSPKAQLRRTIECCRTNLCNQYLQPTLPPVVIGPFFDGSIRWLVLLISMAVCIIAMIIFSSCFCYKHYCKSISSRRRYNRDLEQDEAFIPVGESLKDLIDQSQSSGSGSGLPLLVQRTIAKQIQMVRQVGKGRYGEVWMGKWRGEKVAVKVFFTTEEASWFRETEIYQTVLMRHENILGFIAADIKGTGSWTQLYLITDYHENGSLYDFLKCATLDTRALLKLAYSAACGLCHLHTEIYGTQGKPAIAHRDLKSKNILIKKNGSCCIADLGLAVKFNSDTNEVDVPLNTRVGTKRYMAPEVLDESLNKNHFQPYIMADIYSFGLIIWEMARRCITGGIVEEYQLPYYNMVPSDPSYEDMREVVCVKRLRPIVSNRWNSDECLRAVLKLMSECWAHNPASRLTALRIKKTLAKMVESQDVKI", "in_short": "as §1"}, "ACVR2B": {"target": "ACVR2B (Homo sapiens, UniProt Q13705)", "in_short": "as §1"}, "TBK1": {"target": "TBK1 (Homo sapiens, UniProt Q9UHD2)", "sequence (Q9UHD2 whole entry)": "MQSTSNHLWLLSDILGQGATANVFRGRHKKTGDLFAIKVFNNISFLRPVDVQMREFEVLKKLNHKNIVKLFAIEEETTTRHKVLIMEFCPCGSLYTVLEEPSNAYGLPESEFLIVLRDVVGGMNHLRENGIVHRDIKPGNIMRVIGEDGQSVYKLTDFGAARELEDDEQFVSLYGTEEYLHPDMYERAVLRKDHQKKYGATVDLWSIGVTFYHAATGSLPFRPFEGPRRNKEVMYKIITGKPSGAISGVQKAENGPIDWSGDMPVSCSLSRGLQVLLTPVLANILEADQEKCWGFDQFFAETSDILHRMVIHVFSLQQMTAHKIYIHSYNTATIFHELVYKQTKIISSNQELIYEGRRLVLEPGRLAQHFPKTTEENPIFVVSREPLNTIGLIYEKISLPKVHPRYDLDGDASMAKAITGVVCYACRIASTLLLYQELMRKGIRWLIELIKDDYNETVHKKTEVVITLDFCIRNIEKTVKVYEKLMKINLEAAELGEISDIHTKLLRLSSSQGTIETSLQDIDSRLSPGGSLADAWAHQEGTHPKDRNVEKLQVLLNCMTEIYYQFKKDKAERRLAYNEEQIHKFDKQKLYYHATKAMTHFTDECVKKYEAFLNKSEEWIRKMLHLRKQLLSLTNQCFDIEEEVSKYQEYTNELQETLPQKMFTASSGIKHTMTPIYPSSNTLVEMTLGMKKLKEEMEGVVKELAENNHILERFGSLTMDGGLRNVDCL", "in_short": "as §1"}, "HIPK1": {"target": "HIPK1 (Homo sapiens, UniProt Q86Z02)", "sequence (Q86Z02 whole entry)": "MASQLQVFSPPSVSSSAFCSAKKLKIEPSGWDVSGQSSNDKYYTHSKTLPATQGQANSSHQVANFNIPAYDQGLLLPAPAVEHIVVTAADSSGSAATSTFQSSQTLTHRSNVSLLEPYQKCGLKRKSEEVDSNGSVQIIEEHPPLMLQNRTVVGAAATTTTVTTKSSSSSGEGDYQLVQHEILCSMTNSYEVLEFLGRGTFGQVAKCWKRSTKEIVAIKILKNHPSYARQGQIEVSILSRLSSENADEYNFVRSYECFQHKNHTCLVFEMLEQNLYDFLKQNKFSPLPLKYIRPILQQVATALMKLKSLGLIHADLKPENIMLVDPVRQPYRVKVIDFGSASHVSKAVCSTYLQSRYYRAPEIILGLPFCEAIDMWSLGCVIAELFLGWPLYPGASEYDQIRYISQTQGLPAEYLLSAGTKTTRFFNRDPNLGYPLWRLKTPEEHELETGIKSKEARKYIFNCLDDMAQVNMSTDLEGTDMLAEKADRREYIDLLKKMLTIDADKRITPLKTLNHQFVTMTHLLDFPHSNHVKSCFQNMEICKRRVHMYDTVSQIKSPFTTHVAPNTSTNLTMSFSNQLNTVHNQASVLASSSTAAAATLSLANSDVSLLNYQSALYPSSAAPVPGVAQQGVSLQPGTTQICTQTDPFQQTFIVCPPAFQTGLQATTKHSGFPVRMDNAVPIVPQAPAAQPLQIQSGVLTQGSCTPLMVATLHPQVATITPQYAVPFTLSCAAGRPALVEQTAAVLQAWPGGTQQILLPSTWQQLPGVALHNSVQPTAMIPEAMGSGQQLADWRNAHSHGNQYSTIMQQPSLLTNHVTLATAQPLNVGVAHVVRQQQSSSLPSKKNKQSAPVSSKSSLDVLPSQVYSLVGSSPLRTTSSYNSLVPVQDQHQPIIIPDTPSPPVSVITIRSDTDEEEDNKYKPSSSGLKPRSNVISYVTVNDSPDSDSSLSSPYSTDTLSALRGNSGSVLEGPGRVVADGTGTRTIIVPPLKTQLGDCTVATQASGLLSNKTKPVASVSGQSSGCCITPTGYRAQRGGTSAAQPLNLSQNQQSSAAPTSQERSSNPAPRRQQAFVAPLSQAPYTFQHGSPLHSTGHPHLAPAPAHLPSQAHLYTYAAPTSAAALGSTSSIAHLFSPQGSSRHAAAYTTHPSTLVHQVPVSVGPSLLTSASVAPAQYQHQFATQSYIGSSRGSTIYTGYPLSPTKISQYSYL", "in_short": "as §1"}, "MAP4K4": {"target": "MAP4K4 (Homo sapiens, UniProt O95819)", "in_short": "as §1"}, "NLK": {"target": "NLK (Homo sapiens, UniProt Q9UBE8)", "in_short": "as §1"}, "TAOK3": {"target": "TAOK3 (Homo sapiens, UniProt Q9H2K8)", "in_short": "as §1"}, "[1]": {"target": "T2, ABL1(H396P)-nonphosphorylated (Homo sapiens, UniProt P00519, H396P)", "T2 construct": "nonphosphorylated", "in_short": "as §1"}, "PIK3CA(E545A)": {"target": "PIK3CA(E545A) (Homo sapiens, UniProt P42336, E545A)", "in_short": "as §1"}, "PRP4": {"target": "T3, PRP4 (Homo sapiens, UniProt Q13523)", "T3 construct": "gene PRPF4B", "in_short": "as §1"}, "PLK4": {"target": "PLK4 (Homo sapiens, UniProt O00444)", "sequence (O00444 whole entry)": "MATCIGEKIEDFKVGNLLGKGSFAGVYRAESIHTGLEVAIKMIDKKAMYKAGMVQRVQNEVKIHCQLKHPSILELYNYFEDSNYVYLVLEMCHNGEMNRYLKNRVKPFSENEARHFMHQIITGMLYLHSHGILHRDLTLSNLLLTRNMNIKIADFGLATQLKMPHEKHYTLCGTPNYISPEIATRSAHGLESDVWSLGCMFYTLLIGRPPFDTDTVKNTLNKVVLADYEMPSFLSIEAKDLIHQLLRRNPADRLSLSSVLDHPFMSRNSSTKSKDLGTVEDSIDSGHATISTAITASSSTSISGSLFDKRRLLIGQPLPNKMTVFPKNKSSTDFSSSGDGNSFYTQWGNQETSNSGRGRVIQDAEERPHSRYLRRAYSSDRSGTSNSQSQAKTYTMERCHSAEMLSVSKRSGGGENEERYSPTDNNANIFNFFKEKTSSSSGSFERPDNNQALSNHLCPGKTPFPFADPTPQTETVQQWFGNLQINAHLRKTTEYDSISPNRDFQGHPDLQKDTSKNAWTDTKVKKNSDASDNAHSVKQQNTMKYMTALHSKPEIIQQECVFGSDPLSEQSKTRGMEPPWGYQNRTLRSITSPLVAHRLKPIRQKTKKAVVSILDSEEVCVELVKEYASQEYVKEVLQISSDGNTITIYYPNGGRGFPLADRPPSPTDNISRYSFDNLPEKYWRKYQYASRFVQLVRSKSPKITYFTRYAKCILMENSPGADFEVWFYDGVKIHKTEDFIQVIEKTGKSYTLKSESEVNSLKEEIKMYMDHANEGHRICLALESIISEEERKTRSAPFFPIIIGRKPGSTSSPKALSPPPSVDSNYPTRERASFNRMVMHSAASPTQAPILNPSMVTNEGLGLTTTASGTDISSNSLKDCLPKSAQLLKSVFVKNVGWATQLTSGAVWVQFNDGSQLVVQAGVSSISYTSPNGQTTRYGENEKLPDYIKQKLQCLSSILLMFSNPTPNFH", "in_short": "as §1"}, "MAP3K3": {"target": "MAP3K3 (Homo sapiens, UniProt Q99759)", "in_short": "as §1"}, "CAMK2A": {"target": "CAMK2A (Homo sapiens, UniProt Q9UQM7)", "in_short": "as §1"}, "GSK3B": {"target": "GSK3B (Homo sapiens, UniProt P49841)", "sequence (P49841 whole entry)": "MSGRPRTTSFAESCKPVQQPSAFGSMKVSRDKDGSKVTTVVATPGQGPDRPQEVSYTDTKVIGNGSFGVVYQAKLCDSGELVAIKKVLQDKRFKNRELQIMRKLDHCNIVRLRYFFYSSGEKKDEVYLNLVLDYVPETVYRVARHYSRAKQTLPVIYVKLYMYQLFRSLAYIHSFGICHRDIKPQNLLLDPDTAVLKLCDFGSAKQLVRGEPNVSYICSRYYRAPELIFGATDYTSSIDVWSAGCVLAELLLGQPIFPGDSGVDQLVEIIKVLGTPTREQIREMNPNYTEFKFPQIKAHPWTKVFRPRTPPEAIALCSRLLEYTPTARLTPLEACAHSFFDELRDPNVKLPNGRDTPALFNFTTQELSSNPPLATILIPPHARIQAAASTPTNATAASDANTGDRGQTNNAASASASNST", "in_short": "as §1"}, "ABL1-phosphorylated": {"target": "T4, ABL1-phosphorylated (Homo sapiens, UniProt P00519)", "T4 construct": "phosphorylated", "in_short": "as §1"}, "[2]": {"target": "T5, TYK2(JH2domain-pseudokinase) (Homo sapiens, UniProt P29597)", "T5 construct": "JH2domain-pseudokinase", "in_short": "as §1"}, "AMPK-alpha1": {"target": "T6, AMPK-alpha1 (Homo sapiens, UniProt Q13131)", "T6 construct": "gene PRKAA1", "in_short": "as §1"}, "FES": {"target": "FES (Homo sapiens, UniProt P07332)", "in_short": "as §1"}, "MKNK2": {"target": "MKNK2 (Homo sapiens, UniProt Q9HBH9)", "in_short": "as §1"}, "MAPKAPK5": {"target": "MAPKAPK5 (Homo sapiens, UniProt Q8IW41)", "in_short": "as §1"}, "PKN2": {"target": "PKN2 (Homo sapiens, UniProt Q16513)", "sequence (Q16513 whole entry)": "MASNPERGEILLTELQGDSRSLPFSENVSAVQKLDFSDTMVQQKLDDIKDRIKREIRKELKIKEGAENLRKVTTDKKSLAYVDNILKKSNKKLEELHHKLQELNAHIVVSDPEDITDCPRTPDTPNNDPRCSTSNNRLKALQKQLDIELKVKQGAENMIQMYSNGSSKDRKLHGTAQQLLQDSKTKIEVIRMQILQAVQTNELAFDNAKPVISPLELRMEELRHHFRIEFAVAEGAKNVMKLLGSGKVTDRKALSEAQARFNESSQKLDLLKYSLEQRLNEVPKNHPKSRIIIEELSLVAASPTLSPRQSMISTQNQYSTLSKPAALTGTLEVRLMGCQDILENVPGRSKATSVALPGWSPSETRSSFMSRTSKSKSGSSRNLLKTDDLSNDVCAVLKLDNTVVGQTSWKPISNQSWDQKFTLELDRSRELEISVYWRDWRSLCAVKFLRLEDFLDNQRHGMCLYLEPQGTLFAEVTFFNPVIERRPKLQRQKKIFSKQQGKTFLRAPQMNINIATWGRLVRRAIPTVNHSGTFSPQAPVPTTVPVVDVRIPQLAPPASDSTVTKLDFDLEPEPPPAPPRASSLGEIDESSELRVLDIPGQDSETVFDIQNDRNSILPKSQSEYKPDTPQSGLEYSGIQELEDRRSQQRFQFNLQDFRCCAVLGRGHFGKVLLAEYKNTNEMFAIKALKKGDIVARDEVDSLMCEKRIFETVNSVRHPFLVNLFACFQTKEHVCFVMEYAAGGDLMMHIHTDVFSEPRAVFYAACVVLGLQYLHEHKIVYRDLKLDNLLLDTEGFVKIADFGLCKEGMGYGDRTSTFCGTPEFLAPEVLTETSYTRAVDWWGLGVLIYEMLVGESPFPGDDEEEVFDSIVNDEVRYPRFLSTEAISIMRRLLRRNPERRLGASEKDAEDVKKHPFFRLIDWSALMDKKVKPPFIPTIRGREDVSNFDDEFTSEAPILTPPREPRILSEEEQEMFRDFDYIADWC", "in_short": "as §1"}},
  "data": [
    {"smiles": "CNS(=O)(=O)c1ccc(N(C)C)c(Nc2ncnc3cc(OC)c(OC)cc23)c1", "note": "[compound 7, 3-((6,7-dimethoxyquinazolin-4-yl)amino)-4-(dimethylamino)-N-methylbenzenesulfonamide]", "values": [
      {"measurement": "inhibition at 1 µM", "setting": "PRKCE", "result": 0, "unit": "%"},
      {"measurement": "inhibition at 1 µM", "setting": "ERK8", "result": 13, "unit": "%"},
      {"measurement": "inhibition at 1 µM", "setting": "PLK3", "result": 0, "unit": "%"},
      {"measurement": "inhibition at 1 µM", "setting": "BMPR1A", "result": 0, "unit": "%"},
      {"measurement": "inhibition at 1 µM", "setting": "ACVR2B", "result": 6, "unit": "%"},
      {"measurement": "inhibition at 1 µM", "setting": "TBK1", "result": 0, "unit": "%"},
      {"measurement": "inhibition at 1 µM", "setting": "HIPK1", "result": 5, "unit": "%"},
      {"measurement": "inhibition at 1 µM", "setting": "MAP4K4", "result": 0, "unit": "%"},
      {"measurement": "inhibition at 1 µM", "setting": "NLK", "result": 24, "unit": "%"},
      {"measurement": "inhibition at 1 µM", "setting": "TAOK3", "result": 29, "unit": "%"},
      {"measurement": "inhibition at 1 µM", "setting": "[1]", "result": 73, "unit": "%"},
      {"measurement": "inhibition at 1 µM", "setting": "PIK3CA(E545A)", "result": 0, "unit": "%"},
      {"measurement": "inhibition at 1 µM", "setting": "PRP4", "result": 24, "unit": "%"},
      {"measurement": "inhibition at 1 µM", "setting": "PLK4", "result": 7, "unit": "%"},
      {"measurement": "inhibition at 1 µM", "setting": "MAP3K3", "result": 30, "unit": "%"},
      {"measurement": "inhibition at 1 µM", "setting": "CAMK2A", "result": 9, "unit": "%"},
      {"measurement": "inhibition at 1 µM", "setting": "GSK3B", "result": 0, "unit": "%"},
      {"measurement": "inhibition at 1 µM", "setting": "ABL1-phosphorylated", "result": 26, "unit": "%"},
      {"measurement": "inhibition at 1 µM", "setting": "[2]", "result": 0, "unit": "%"},
      {"measurement": "inhibition at 1 µM", "setting": "AMPK-alpha1", "result": 0, "unit": "%"},
      {"measurement": "inhibition at 1 µM", "setting": "FES", "result": 0, "unit": "%"},
      {"measurement": "inhibition at 1 µM", "setting": "MKNK2", "result": 13, "unit": "%"},
      {"measurement": "inhibition at 1 µM", "setting": "MAPKAPK5", "result": 27, "unit": "%"},
      {"measurement": "inhibition at 1 µM", "setting": "PKN2", "result": 11, "unit": "%"}
    ]}
  ]
}
